# In US20140336267A1, “UTILIZATION OF THE FUNCTION OF RARE SUGAR AS PROMOTER FOR THE MIGRATION OF GLUCOKINASE FROM NUCLEUS TO CYTOPLASM” (NATIONAL UNIVERSITY CORPORATION KAGAWA UNIVERSITY, priority 2006, published 2014):
# Entries after “also recorded” stand apart in the source; their conditions may differ.
# What was measured:
# [1] = target: T1, glucokinase (Rattus norvegicus, UniProt P17712); assay: Intracellular transfer of hepatic glucokinase with ketose (fluorescence antibody method, rat hepatocyte primary culture); format: cell-based
# T1 construct: stained by a fluorescence antibody method using an anti-glucokinase antibody; endogenous in cells; host or cells: primary culture of hepatocytes from male Wistar rats
# T1 sequence (P17712 1-465 isoform P17712-3): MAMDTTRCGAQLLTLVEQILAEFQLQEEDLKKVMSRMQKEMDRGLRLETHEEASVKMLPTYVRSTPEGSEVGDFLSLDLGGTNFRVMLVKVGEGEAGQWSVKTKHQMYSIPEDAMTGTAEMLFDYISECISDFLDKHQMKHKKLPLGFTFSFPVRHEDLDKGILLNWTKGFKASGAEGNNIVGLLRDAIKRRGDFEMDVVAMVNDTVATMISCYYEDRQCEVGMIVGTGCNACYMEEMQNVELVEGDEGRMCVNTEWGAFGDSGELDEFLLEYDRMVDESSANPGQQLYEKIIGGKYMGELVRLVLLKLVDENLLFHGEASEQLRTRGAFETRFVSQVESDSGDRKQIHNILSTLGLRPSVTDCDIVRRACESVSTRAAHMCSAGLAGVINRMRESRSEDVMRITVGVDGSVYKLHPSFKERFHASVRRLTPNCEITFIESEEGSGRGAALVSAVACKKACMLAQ
# Description: Wistar rats (male, aged 5 to 8 weeks) were used. […] The hepatocytes were fixed with 4% para-formaldehyde, and stained by a fluorescence antibody method using an anti-glucokinase antibody. A fluorescent image obtained with a co-focus laser microscope was analyzed with the NIH Image to calculate the fluorescence intensity in the nucleus and the cytoplasm, which were defined as the glucokinase level in the nucleus and the cytoplasm. […] By the same method as described above, the glucokinase level in the intracellular nucleus and the cytoplasm was determined.
# [2] = target: T1, glucokinase; assay: Glucokinase distribution in primary hepatocytes with D-glucose and D-fructose (fluorescence antibody method); format: cell-based; conditions: 0.5 mM D-fructose present vs absent; 5 mM or 25 mM D-glucose; 37° C. 30 minutes
# Description: In the presence of 5 mM D-glucose, glucokinase mainly existed in the cell nucleus.
# (§1) Cultured hepatocytes were incubated in an MEM culture medium containing 5 mM or 25 mM D-glucose with an action of promoting glucokinase transfer from nucleus to cytoplasm. Glucokinase transfer from nucleus to cytoplasm, glycogen synthesis and lactic acid generation were increased. Via glucose, glucokinase transfer from nucleus to cytoplasm occurs, which raises cytoplasmic glucokinase activity to possibly promote the sugar metabolism in liver. […] (FIGS. 4, 6, 7 and 8)
# [3] = system: hepatocytes; assay: Lactic acid generation in hepatocytes; format: cell-based, rat; conditions: each D-ketose added at 0.5 mM; MEM with 15 mM glucose; DMSO control
# Description: […] As a control, DMSO was added.
# as §1
# [4] = target: T1, glucokinase; assay: Hepatic glucokinase transfer from nucleus to cytoplasm after oral sugar given with D-glucose, Wistar rats (Example 3); format: in vivo; conditions: Wistar rats; 0.2 g/kg oral simultaneously with 2 g/kg D-glucose; 30 minutes later
# Description: Male Wistar rats starved overnight were given 2 g/kg D-glucose orally. Simultaneously, 0.2 g/kg D-psicose, D-fructose or a mixture of D-psicose and D-fructose at 1:3 were given orally. Thirty minutes later, the rats were perfused and fixed with 4% para-formaldehyde under anesthesia, from which liver was immediately resected to prepare frozen sections. The distribution of glucokinase in the nucleus and the cytoplasm was analyzed with the fluorescence antibody method using an anti-glucokinase antibody. Simultaneously, blood was drawn out from the tail vein and the portal vein, to assay blood glucose levels.
# [5] = system: primary culture of rat hepatocytes; assay: Glucose phosphorylation rate in cultured hepatocytes; format: cell-based
# Description: Subsequently, the primary culture was incubated at various D-fructose concentrations in the presence of 25 mM D-glucose. […] The results agreed with the results reported so far.
# [6] = system: Goto-Kakizaki rats; assay: Blood glucose levels in tail vein and portal vein after sugar loading, Goto-Kakizaki rats; format: in vivo, rat
# Description: (§2) The action of suppressing blood glucose increase with D-fructose at a low concentration was examined. To Goto-Kakizaki rats as a model animal of type 2 diabetes mellitus, D-glucose to 2 g/[…] or D-glucose to 2 g/l kg body weight+D-fructose to 0.2 g/1 kg body weight was administered orally, to examine the modification of glucokinase transfer from the nucleus to the cytoplasm in hepatocytes and the change of the blood glucose levels in the portal vein and the tail vein.
# (§3) 2 g/kg D-glucose is orally given to male Goto-Kakizaki rats starved overnight. Simultaneously, 0.2 g/kg D-psicose was orally given. Thirty minutes later and 60 minutes later, the rats were perfused and fixed with 4% para-formaldehyde under anesthesia, from which liver was immediately resected to prepare frozen sections. The distribution of hepatic glucokinase in nucleus and cytoplasm was analyzed with the fluorescence antibody method using an anti-glucokinase antibody. Simultaneously, blood was drawn out from the tail vein and the portal vein, to assay blood glucose level and insulin concentration. Herein, liver is divided in the portal vein region and the central vein region of liver. It has been known that the activity of glucokinase in the central vein region is higher by 1.3 fold to 1.5 fold than the activity thereof in the portal vein region. Therefore, the glucokinase distributions in the nucleus and the cytoplasm in the central vein region and the portal vein region were analyzed.
# [7] = target: T1, glucokinase; assay: Hepatic glucokinase transfer from nucleus to cytoplasm in Goto-Kakizaki rats (type 2 diabetes model); format: in vivo
# Description: as §2, §3
# [8] = target: T1, glucokinase; assay: Hepatic glucokinase transfer from nucleus to cytoplasm after oral sugar alone, Wistar rats (Example 2); format: in vivo; conditions: Wistar rats starved overnight; 2 g/kg oral; 30 minutes later
# Description: Thirty minutes later, the rats were subjected to perfusion and fixing with 4% para-formaldehyde under anesthesia, from which liver was immediately resected to prepare frozen sections. The distribution of glucokinase in nucleus and cytoplasm was analyzed with the fluorescence antibody method using an anti-glucokinase antibody. Simultaneously, blood was drawn out from the tail vein and the portal vein, to assay blood glucose levels.
# [9] = system: glucokinase; assay: Intracellular transfer of hepatic glucokinase with hormones and various compounds (rat hepatocyte primary culture); format: cell-based; conditions: 25 mM D-glucose MEM
# Description: Wistar rats (male, aged 5 to 8 weeks) were used. A primary culture of the rat hepatocyte was incubated for a certain period of time in a 25 mM D-glucose-containing MEM culture medium supplemented with hormones and various compounds. The hepatocytes were fixed with 4% para-formaldehyde, and stained by a fluorescence antibody method using an anti-glucokinase antibody. A fluorescent image obtained with a co-focus laser microscope was analyzed with the NIH Image to calculate the fluorescence intensity in the nucleus and the cytoplasm, which were defined as the glucokinase level in the nucleus and the cytoplasm.
# [10] = system: Goto-Kakizaki rats; assay: Insulin concentrations in tail vein and portal vein under sugar loading, Goto-Kakizaki rats; format: in vivo, rat; conditions: 0.2 g/kg with 2 g/kg D-glucose oral, 30 minutes and 60 minutes, vs D-glucose alone
# Description: as §3
# [11] = ketose added, MEM culture medium with 5 mM or 15 mM D-glucose
# [12] = 0.2 g/kg with 2 g/kg D-glucose oral, 30 minutes and 60 minutes, vs D-glucose alone
# [13] = 0.2 g/kg with 2 g/kg D-glucose oral, compared with D-glucose alone, portal and central vein regions
compound,measurement,setting,value
O=C(CO)[C@@H](O)[C@H](O)[C@H](O)CO [D-fructose],glucokinase transfer from nucleus to cytoplasm,"[1]; ketose added at 1 mM or more, 5 mM or 15 mM D-glucose",glucokinase transfer from nucleus to cytoplasm was gradually reduced
same,glucokinase transfer from nucleus to cytoplasm,[1]; [11],glucokinase transferred from nucleus to cytoplasm
same,glucokinase transfer from the nucleus to the cytoplasm,[2],the glucokinase transfer from the nucleus to the cytoplasm increased
same,lactic acid generation,[3],lactic acid generation was increased
same,glucokinase transfer from the nucleus to the cytoplasm in hepatocytes,[4],glucokinase was mostly transferred to the cytoplasm
same,glucose phosphorylation,"[5]; 0.5 mM D-fructose present vs absent, various glucose concentrations",enhanced glucose phosphorylation in the hepatocytes
same,glucose phosphorylation,"[5]; above 0.5 mM D-fructose, 25 mM D-glucose",glucose phosphorylation was reduced
same,glucose phosphorylation,"[5]; up to 0.5 mM D-fructose, 25 mM D-glucose",glucose phosphorylation was enhanced as the D-fructose concentration was raised
same,blood glucose level in the portal vein,[6]; additional supplement of D-fructose compared with D-glucose alone,suppressed significantly
same,blood glucose level in the portal vein,[6]; effect of D-fructose loading added to D-glucose,No difference was observed
same,glucokinase transfer from the nucleus to the cytoplasm in hepatocytes,"[7]; D-glucose 2 g/kg + D-fructose 0.2 g/kg oral, compared with D-glucose alone",significantly increased
same,glucokinase transfer from the nucleus to the cytoplasm in hepatocytes,[8],a higher level of the transfer was observed than with D-psicose
O=C(CO)[C@@H](O)[C@@H](O)[C@@H](O)CO [L-psicose],glucokinase transfer from nucleus to cytoplasm,[1]; [11],glucokinase transferred from nucleus to cytoplasm
insulin: hormone that transfers glucokinase from nucleus to cytoplasm,cytoplasmic glucokinase,[9]; hormone or compound alone,increase of cytoplasmic glucokinase
CCCC(=O)Nc1ncnc2c1ncn2[C@@H]1O[C@@H]2COP(=O)(O)O[C@H]2[C@H]1OC(=O)CCC [Bt2cAMP],cytoplasmic glucokinase,[9]; hormone or compound alone,cytoplasmic glucokinase activity was reduced
O=C(CO)[C@H](O)[C@@H](O)[C@H](O)CO [D-sorbose],glucokinase transfer from nucleus to cytoplasm,[1]; at any of the ketose concentrations,did not influence glucokinase transfer; also recorded: hardly influenced such glucokinase transfer
CCCCCCOC(=O)[C@]1(O)C[C@@H]2O[C@@]1(C)n1c3ccccc3c3c4c(c5c6ccccc6n2c5c31)C(=O)NC4 [KT-5720],cytoplasmic glucokinase,[9]; compound in the presence of glucagon,Almost no reduction of cytoplasmic glucokinase with glucagon was observed any more
glucagon: hormone that transfers glucokinase from cytoplasm to nucleus,cytoplasmic glucokinase,[9]; hormone or compound alone,cytoplasmic glucokinase activity was reduced
O=C(CO)[C@H](O)[C@H](O)[C@H](O)CO [D-psicose],glucokinase transfer from nucleus to cytoplasm,[1]; even at a high ketose concentration,exerted an action to promote glucokinase transfer from nucleus to cytoplasm
same,glucokinase transfer from nucleus to cytoplasm,[1]; [11],glucokinase transferred from nucleus to cytoplasm
same,insulin concentration in the portal vein,[10],significantly lower values
same,insulin concentration in the tail vein,[10],significantly lower values
same,lactic acid generation,[3],lactic acid generation was increased
same,glucokinase transfer from the nucleus to the cytoplasm in hepatocytes,[4],glucokinase was transferred to the cytoplasm apparently but more weakly than with D-fructose
same,glucose concentration in the portal vein,[6]; [12],significantly lower values
same,glucose concentration in the tail vein,[6]; [12],significantly lower values
same,cytoplasmic glucokinase fluorescence (liver),[7]; [13],increased the cytoplasmic fluorescence
same,nuclear glucokinase fluorescence (liver),[7]; [13],significantly reduced the nuclear fluorescence
same,cytoplasmic glucokinase level (fluorescence intensity analysis),"[7]; simultaneous administration with D-glucose vs D-glucose alone, central vein and portal vein regions",further increased the cytoplasmic glucokinase level
same,glucokinase transfer from the nucleus to the cytoplasm in hepatocytes,[8],glucokinase transfer from the nucleus to the cytoplasm could be observed
COc1cccc(-c2cc(=O)c3ccccc3o2)c1N [PD-98059],cytoplasmic glucokinase,[9]; compound in the presence of insulin,such change could not be observed
O=C(CO)[C@@H](O)[C@@H](O)[C@H](O)CO [D-tagatose],glucokinase transfer from nucleus to cytoplasm,"[1]; ketose added up to 1 mM, any of the D-glucose concentrations",glucokinase transferred from nucleus to cytoplasm
same,glucokinase transfer from nucleus to cytoplasm,[1]; [11],glucokinase transferred from nucleus to cytoplasm
same,glucokinase transfer from nucleus to cytoplasm,[1]; ketose concentration 10 mM or more,no change of the glucokinase transfer was observed; also recorded: no glucokinase transfer from nucleus to cytoplasm was observed
O=C(CO)[C@H](O)[C@@H](O)[C@@H](O)CO [L-fructose],glucokinase transfer from nucleus to cytoplasm,"[1]; ketose added at 20 mM or more, 5 mM or 15 mM D-glucose",glucokinase transfer from nucleus to cytoplasm was gradually reduced
same,glucokinase transfer from nucleus to cytoplasm,[1]; [11],glucokinase transferred from nucleus to cytoplasm
O=C(CO)[C@@H](O)[C@H](O)[C@@H](O)CO [L-sorbose],glucokinase transfer from nucleus to cytoplasm,[1]; [11],glucokinase transferred from nucleus to cytoplasm as the L-sorbose concentration was raised
CC(C)Cn1c(=O)n(C)c(=O)c2[nH]cnc21 [IBMX],cytoplasmic glucokinase,[9]; hormone or compound alone,cytoplasmic glucokinase activity was reduced
O=C(CO)[C@H](O)[C@H](O)[C@@H](O)CO [L-tagatose],glucokinase transfer from nucleus to cytoplasm,[1]; [11],never influenced the glucokinase transfer
